Test results as given in patent US5631247A, “Compounds and compositions with nitrogen-containing non-basic side chains” (Eli Lilly and Company, priority 1996, dated 1997).
Several values for one entry are separate records, joined by “and”; a condition that tells them apart may be missing. Equal entries are not always repeated.

How the values were obtained:
[1] = test system: MCF-7 breast adenocarcinoma cells; test: MCF-7 proliferation assay (tritiated thymidine); assay type: cell-based; details: Homo sapiens, MCF7, 48 hours with drug, read-out: ED50 (the source's name)
Protocol: MCF-7 breast adenocarcinoma cells (ATCC HTB 22) were maintained in MEM (minimal essential medium, phenol red-free, Sigma, St. Louis, Mo.) supplemented with 10% fetal bovine serum (FBS) (V/V), L-glutamine (2 mM), sodium pyruvate (1 mM), HEPES {(N-[2-hydroxyethyl]piperazine-N'-[2-ethanesulfonic acid]10 mM}, non-essential amino acids and bovine insulin (1 μg/ml) (maintenance medium). Ten days prior to assay, MCF-7 cells were switched to maintenance medium supplemented with 10% dextrancoated charcoal stripped fetal bovine serum (DCC-FBS) assay medium) in place of 10% FBS to deplete internal stores of steroids. MCF-7 cells were removed from maintenance flasks using cell dissociation medium (Ca++/Mg++ free HBSS (phenol red-free) supplemented with 10 mM HEPES and 2 mM EDTA). Cells were washed twice with assay medium and adjusted to 80,000 cells/mi. Approximately […] (8,000 cells) were added to flat-bottom microculture wells (Costar 3596) and incubated at 37° C. in a 5% CO2 humidified incubator for 48 hours to allow for cell adherence and equilibration after transfer. Serial dilutions of drugs or DMSO as a diluent control were prepared in assay medium and […] to triplicate microcultures followed by 50 ml assay medium for a final volume of […]. After an additional 48 hours at 37° C. in a 5% CO2 humidified incubator, microcultures were pulsed with tritiated thymidine (1 uCi/well) for 4 hours. Cultures were terminated by freezing at -70° C. for 24 hours followed by thawing and harvesting of microcultures. Samples were counted by liquid scintillation. Results in Table 3 below show the ED50 for certain compounds of the present invention.

uterus = test: Wet uterine weight in ovariectomized rats (four day dosing); assay type: in vivo, female Sprague Dawley rats; details: Rattus norvegicus, po, 96 h, daily for 4 days, increase vs OVX control, read-out: Uterine Weight (% inc. OVX)
Protocol: (§1) In the examples illustrating the methods, a post-menopausal model was used in which effects of different treatments upon various biological parameters were determined, including serum cholesterol concentration, uterine weight, eosinophil peroxidase activity, MCF-7 cell proliferation, and bone density.
(§2) Animals were dosed daily for 4 days. […] A blood sample was collected by cardiac puncture.
(§3) Data presented in Table 1 below show comparative results among control ovariectomized rats, rats treated with EE2, and rats treated with certain compounds of the present invention. […] This uterine response to estrogen is well recognized in the art.
(§4) The data presented in Table 1 reflect the response of 5 to 6 rats per treatment.

eosinophil peroxidase = test: Uterine eosinophil peroxidase (EPO) assay in ovariectomized rats (four day dosing); assay type: in vivo, female Sprague Dawley rats; parameters: Uterine EPO (Vmax): unit not given here; details: oral, daily for 4 days, OVX rats
Protocol: as §1, §2, §4

serum cholesterol = test: Serum cholesterol in ovariectomized rats (post-menopausal rat model, four day dosing); assay type: in vivo, female Sprague Dawley rats; details: oral, daily for 4 days, decrease vs OVX control
Protocol: as §1, §2
Blood samples were allowed to clot at room temperature for 2 hours, and serum was obtained following centrifugation for 10 minutes at 3000 rpm. Serum cholesterol was determined using a Boshringer Mannheim Diagnostics high performance cholesterol assay. Briefly the cholesterol was oxidized to cholest-4-en-3-one and hydrogen peroxide. The hydrogen peroxide was then reacted with phenol and 4-aminophenazone in the presence of peroxidase to produce a p-quinone imine dye, which was read spectrophotemetrically at 500 nm. Cholesterol concentration was then calculated against a standard curve. The entire assay was automated using a Biomek Automated Workstation.
as §3, §4

Structure (SMILES) | IC50 [1] [nM] | change in vivo at 0.1 mg/kg (uterus) [%] | change in vivo at 1 mg/kg (uterus) [%] | change in vivo at 10 mg/kg (uterus) [%] | Uterine EPO (Vmax) (eosinophil peroxidase; 0.1 mg/kg) | Uterine EPO (Vmax) (eosinophil peroxidase; 1 mg/kg) | Uterine EPO (Vmax) (eosinophil peroxidase; 10 mg/kg) | Serum Cholesterol (% dec. OVX) (serum cholesterol; 1 mg/kg) | Serum Cholesterol (% dec. OVX) (serum cholesterol; 10 mg/kg) [%] | change in vivo at 0.01 mg/kg (uterus; 0.01 mg/kg) [%] | Uterine EPO (Vmax) (eosinophil peroxidase; 0.01 mg/kg)
O=C(c1ccc(OCCN2CCCCC2=O)cc1)c1c(-c2ccc(O)cc2)sc2cc(O)ccc12 [Compound 3] | 600 | 13.3 | 17.8 | 57.6 | 8.0 | 7.8 | 8.9 |  |  |  | 
O=C(c1ccc(OCCN2CCCC2=O)cc1)c1c(-c2ccc(O)cc2)sc2cc(O)ccc12 [Compound 6] |  | -9 | 15.4 | 40.3 | 3.6 | 1.4 | 3.7 |  |  |  | 
COc1ccc(-c2sc3cc(OC)ccc3c2C(=O)c2ccc(OCC(=O)N3CCCCC3)cc2)cc1 [Compound 7] | > 1000 | -0.5 | -16.2 | 8.4 | 5.2 | 3.7 | 4.7 |  |  |  | 
O=C(c1ccc(OCC(=O)N2CCCC2)cc1)c1c(-c2ccc(O)cc2)sc2cc(O)ccc12 [Compound 8] | 10 |  |  |  |  |  |  | 69.6% and 39.4% | 64.5 | -22.9 | 3.5
O=C(c1ccc(OCC(=O)N2CCCCC2)cc1)c1c(-c2ccc(O)cc2)sc2cc(O)ccc12 [Compound 9] | 10 | -10 | 6.5 | 51.7 | 2.8 | 3.6 | 32 |  |  |  | 
CCCCN(C)C(=O)COc1ccc(C(=O)c2c(-c3ccc(O)cc3)sc3cc(O)ccc23)cc1 [Compound 10] | 50 | 1.5 | -6.7 | 38 | 4.3 | 3.1 | 17.0 |  |  |  | 
CN(C)C(=O)COc1ccc(C(=O)c2c(-c3ccc(O)cc3)sc3cc(O)ccc23)cc1 [Compound 12] |  | -7.7 | 15.4 | 60.7 | 3.7 | 6.7 | 122.3 |  |  |  | 
O=C(c1ccc(OCCN2C(=O)CCC2=O)cc1)c1c(-c2ccc(O)cc2)sc2cc(O)ccc12 [Compound 13] | > 1000 | 22.2 | 7.2 | -4 | 1.9 | 1.7 | 2.5 |  |  |  | 
N#CCOc1ccc(C(=O)c2c(-c3ccc(O)cc3)sc3cc(O)ccc23)cc1 [Compound 14] | 0.05 | 18.8 | 14.6 | 125 | 3.3 | 2.4 | 145.8 |  |  |  | 
CC(C#N)Oc1ccc(C(=O)c2c(-c3ccc(O)cc3)sc3cc(O)ccc23)cc1 (stereo not drawn) [Compound 16] | 0.02 | 0.7 | 27.4 | 99.2 | 2.3 | 3.9 |  |  |  |  | 
O=C(NCCOc1ccc(C(=O)c2c(-c3ccc(O)cc3)sc3cc(O)ccc23)cc1)c1ccccc1 [Compound 18] | 500 | 16.1 | 25.7 | 12.6 | 3.2 | 3.6 | 3.6 |  |  |  | 
CC(=O)N(CCOc1ccc(C(=O)c2c(-c3ccc(O)cc3)sc3cc(O)ccc23)cc1)C1CCCCC1 [Compound 19] | 0.1 | 7 | -25.5 | 47 | 5.4 | 3.7 | 29.3 |  |  |  | 
O=C(NCCOc1ccc(C(=O)c2c(-c3ccc(O)cc3)sc3cc(O)ccc23)cc1)NC1CCCCC1 [Compound 20] | 0.1 | -29.9 | -27.4 | -32.7 | 3.0 | 2.5 | 2.9 |  |  |  | 
O=C(c1ccc(OCCNC(=O)C2CCCCC2)cc1)c1c(-c2ccc(O)cc2)sc2cc(O)ccc12 [Compound 21] |  | -5.5 | -11.5 | 8.6 | 3.1 | 2.6 | 2.4 |  |  |  | 
CC(C)(C)C(=O)N1CCCCC1COc1ccc(C(=O)c2c(-c3ccc(O)cc3)sc3cc(O)ccc23)cc1 (stereo not drawn) [Compound 22] | 0.01 | 1.9 | 19.6 | 46.9 | 3.5 | 20.0 | 69.5 |  |  |  | 
CC(C)(C)C(=O)N1CCC(Oc2ccc(C(=O)c3c(-c4ccc(O)cc4)sc4cc(O)ccc34)cc2)CC1 [Compound 23] | 4 | -4.3 | 0.8 | 22.3 | 1.6 | 3.8 | 6.7 |  |  |  | 
CC(=O)NCCOc1ccc(C(=O)c2c(-c3ccc(O)cc3)sc3cc(O)ccc23)cc1 [Compound 26] |  | -17.5 | -28.8 | 25.8 | 1.3 | 0.7 |  |  |  |  | 
